Structures are written as SMILES. Where only a bound is given, the exact number is not on record here.

In this assay the target is SARS2 protease (Severe acute respiratory syndrome coronavirus 2, UniProt P0DTD1). The assay is described as follows: SARS-CoV-2 protease inhibition assay (SARS2 FRET protease assay). Format: biochemical. The conditions noted are these: SARS-CoV-2 protease 25 nM, FRET, peptide substrate 1.3 μM, 30 minutes at 30° C., compounds 20 μM to 1.0 nM; read-out: IC50.
What is called IC50 is the concentration that inhibits the measured activity by half. On to `CCOP(=O)(OCC)C(O)C(CC1CC2(CCN(C(C)=O)CC2)NC1=O)NC(=O)[C@H](CC(C)C)NC(=O)c1cc2ccccc2[nH]1` (stereo partly drawn) [Compound C94, Diethyl (2-((S)-2-(1H-indole-2-carboxamido)-4-methylpentanamido)-3-(8-acetyl-2-oxo-1,8-diazaspiro[4.5]decan-3-yl)-1-hydroxypropyl)phosphonate], for which the IC50 stood at 2.6 µM.

Regarding `CCOP(=O)(OCC)C(O)C(CC1CC2(CCN(C(C)=O)CC2)NC1=O)NC(=O)[C@H](CC(C)C)NC(=O)OCC1CCC(F)(F)CC1` (stereo partly drawn) [Compound C95, (4,4-Difluorocyclohexyl)methyl ((2S)-1-((3-(8-acetyl-2-oxo-1,8-diazaspiro[4.5]decan-3-yl)-1-(diethoxyphosphoryl)-1-hydroxypropan-2-yl)amino)-4-methyl-1-oxopentan-2-yl)carbamate], the IC50 is 7 µM.

As for `CC(C)C[C@H](NC(=O)N(Cc1ccccc1)C1CCN(C(=O)OC(C)(C)C)CC1)C(=O)N[C@@H](C[C@@H]1CCNC1=O)C(=O)C(=O)NC1CC1` [Compound C98, Tert-butyl 4-(1-benzyl-3-((S)-1-(((S)-4-(cyclopropylamino)-3,4-dioxo-1-((S)-2-oxopyrrolidin-3-yl)butan-2-yl)amino)-4-methyl-1-oxopentan-2-yl)ureido)piperidine-1-carboxylate], the IC50 came out at 2.2 µM.

As for `CC(C)C[C@H](NC(=O)OC(Cc1ccccc1)c1ccccc1)C(=O)N[C@@H](C[C@@H]1CCNC1=O)C(=O)C(N)=O` (stereo partly drawn) [Compound C100, 1,2-Diphenylethyl ((S)-1-(((S)-4-amino-3,4-dioxo-1-((S)-2-oxopyrrolidin-3-yl)butan-2-yl)amino)-4-methyl-1-oxopentan-2-yl)carbamate], the half-maximal inhibitory concentration (IC50) stood at 1 µM.

Regarding `CC(C)C[C@H](NC(=O)OCC(C)(C)c1cccc(Cl)c1)C(=O)N[C@H](CO)C[C@@H]1CCNC1=O` [Compound C101, 2-(3-Chlorophenyl)-2-methylpropyl ((S)-1-(((S)-1-hydroxy-3-((S)-2-oxopyrrolidin-3-yl)propan-2-yl)amino)-4-methyl-1-oxopentan-2-yl)carbamate], the IC50 is more than 20 µM.

`CC(=O)N1CC2(CC(CC(C=O)NC(=O)[C@H](CC(C)C)NC(=O)OCc3cccc(Cl)c3)C(=O)N2)C1` (stereo partly drawn) [Compound C102, 3-chlorobenzyl ((2S)-1-((1-(2-acetyl-6-oxo-2,5-diazaspiro[3.4]octan-7-yl)-3-oxopropan-2-yl)amino)-4-methyl-1-oxopentan-2-yl)carbamate]: the IC50 was found to be 0.118 µM.

Regarding `CC(C)(COC(=O)N[C@H](C(=O)N[C@H](C=O)C[C@@H]1CCNC1=O)C(C)(C)C)c1cccc(Cl)c1` [Compound C103, 2-(3-Chlorophenyl)-2-methylpropyl ((S)-3,3-dimethyl-1-oxo-1-(((S)-1-oxo-3-((S)-2-oxopyrrolidin-3-yl)propan-2-yl)amino)butan-2-yl)carbamate], the IC50 was 0.736 µM.

As to `CC(C)C[C@H](NC(=O)OC(Cc1cccc(Cl)c1)c1ccccc1)C(=O)N[C@H](C=O)C[C@@H]1CCNC1=O` (stereo partly drawn) [Compound C104, 2-(3-Chlorophenyl)-1-phenylethyl ((S)-4-methyl-1-oxo-1-(((S)-1-oxo-3-((S)-2-oxopyrrolidin-3-yl)propan-2-yl)amino)pentan-2-yl) carbamate], the concentration for half-maximal inhibition (IC50) is 0.006 µM.

Turning to `CC(C)(c1cccc(Cl)c1)C(OC(=O)N[C@@H](CC1CCCCC1)C(=O)N[C@H](C=O)C[C@@H]1CCNC1=O)c1cccc(F)c1` (stereo partly drawn) [Compound C105, 2-(3-Chlorophenyl)-1-(3-fluorophenyl)-2-methylpropyl ((S)-3-cyclohexyl-1-oxo-1-(((S)-1-oxo-3-((S)-2-oxopyrrolidin-3-yl)propan-2-yl)amino)propan-2-yl)carbamate], the half-maximal inhibitory concentration (IC50) is 0.0006 µM.

Regarding `CC(C)(c1cccc(Cl)c1)C(OC(=O)N[C@@H](CC1CCCCC1)C(=O)N[C@H](C=O)C[C@@H]1CCNC1=O)c1cccc(Cl)c1` (stereo partly drawn) [Compound C106, 1,2-Bis(3-chlorophenyl)-2-methylpropyl ((S)-3-cyclohexyl-1-oxo-1-(((S)-1-oxo-3-((S)-2-oxopyrrolidin-3-yl)propan-2-yl)amino)propan-2-yl)carbamate], the half-maximal inhibitory concentration (IC50) was 0.0001 µM.

Take `CC(C)C[C@H](NC(=O)OCC1CCC(F)(F)CC1)C(=O)NC(C)(C=O)CC1CCNC1=O` (stereo partly drawn) [Compound C107, (4,4-Difluorocyclohexyl) methyl ((2S)-4-methyl-1-((2-methyl-1-oxo-3-(2-oxopyrrolidin-3-yl)propan-2-yl)amino)-1-oxopentan-2-yl) carbamate]: the IC50 came out at 6.79 µM.

`CC(C)C[C@H](NC(=O)OC(c1ccccc1)C(C)(C)c1cccc(Cl)c1)C(=O)N[C@H](C=O)C[C@@H]1CCNC1=O` (stereo partly drawn) [Compound C108, 2-(3-Chlorophenyl)-2-methyl-1-phenylpropyl ((S)-4-methyl-1-oxo-1-(((S)-1-oxo-3-((S)-2-oxopyrrolidin-3-yl)propan-2-yl)amino)pentan-2-yl) carbamate]: the IC50 was 0.0012 µM.

As for `O=C[C@H](C[C@@H]1CCNC1=O)NC(=O)[C@H](CC1CCCCC1)NC(=O)OC(Cc1cccc(Cl)c1)c1ccccc1` (stereo partly drawn) [Compound C109, 2-(3-Chlorophenyl)-1-phenylethyl ((S)-3-cyclohexyl-1-oxo-1-(((S)-1-oxo-3-((S)-2-oxopyrrolidin-3-yl)propan-2-yl)amino)propan-2-yl)carbamate], the half-maximal inhibitory concentration (IC50) was 0.002 µM.

In the case of `CC(C)(c1cccc(Cl)c1)C(OC(=O)N[C@@H](CC1CCCCC1)C(=O)N[C@H](C=O)C[C@@H]1CCNC1=O)c1ccccc1` (stereo partly drawn) [Compound C110, 2-(3-Chlorophenyl)-2-methyl-1-phenylpropyl ((S)-3-cyclohexyl-1-oxo-1-(((S)-1-oxo-3-((S)-2-oxopyrrolidin-3-yl)propan-2-yl)amino)propan-2-yl) carbamate], the IC50 was determined as 0.0014 µM.

Turning to `CC(C)(COC(=O)N[C@H](C(=O)N[C@@H](C[C@@H]1CCNC1=O)C(O)S(=O)(=O)O)C(C)(C)C)c1cccc(Cl)c1` (stereo partly drawn) [Compound C111, Sodium (2S)-2-((S)-2-(((2-(3-chlorophenyl)-2-methylpropoxy)carbonyl)amino)-3,3-dimethylbutanamido)-1-hydroxy-3-((S)-2-oxopyrrolidin-3-yl)propane-1-sulfonate], the IC50 was found to be 0.491 µM.

Regarding `CC(=O)N1CCC2(CC1)CC(CC(NC(=O)[C@@H](CC1CCCCC1)NC(=O)c1cc3ccccc3[nH]1)C(=O)C(N)=O)C(=O)N2` (stereo partly drawn) [Compound C112, N-((2R)-1-((1-(8-acetyl-2-oxo-1,8-diazaspiro[4.5]decan-3-yl)-4-amino-3,4-dioxobutan-2-yl)amino)-3-cyclohexyl-1-oxopropan-2-yl)-1H-indole-2-carboxamide], the half-inhibitory concentration (IC50) turned out to be 0.185 µM.

Regarding `CC(C)(c1cccc(Cl)c1)C(OC(=O)N[C@@H](CC1CCCCC1)C(=O)N[C@@H](C[C@@H]1CCNC1=O)C(=O)C(N)=O)c1ccccc1` (stereo partly drawn) [Compound C113, 2-(3-Chlorophenyl)-2-methyl-1-phenylpropyl ((S)-1-(((S)-4-amino-3,4-dioxo-1-((S)-2-oxopyrrolidin-3-yl)butan-2-yl)amino)-3-cyclohexyl-1-oxopropan-2-yl) carbamate], the IC50 stood at 0.133 µM.

Regarding `CC(C)C[C@H](NC(=O)OC(Cc1cccc(Cl)c1)c1ccccc1)C(=O)N[C@@H](C[C@@H]1CCNC1=O)C(O)S(=O)(=O)O` (stereo partly drawn) [Compound C114, Sodium (2S)-2-((2S)-2-(((2-(3-chlorophenyl)-1-phenylethoxy)carbonyl)amino)-4-methylpentanamido)-1-hydroxy-3-((S)-2-oxopyrrolidin-3-yl) propane-1-sulfonate], the half-maximal inhibitory concentration (IC50) was found to be 0.0111 µM.

`O=C(N[C@@H](CC1CCCCC1)C(=O)N[C@@H](C[C@@H]1CCNC1=O)C(O)S(=O)(=O)O)OC(Cc1cccc(Cl)c1)c1ccccc1` (stereo partly drawn) [Compound C115, Sodium (2S)-2-((2S)-2-(((2-(3-chlorophenyl)-1-phenylethoxy)carbonyl)amino)-3-cyclohexylpropanamido)-1-hydroxy-3-((S)-2-oxopyrrolidin-3-yl)propane-1-sulfonate]: the IC50 is 0.0157 µM.

Consider `NC(=O)C(=O)[C@H](C[C@@H]1CCNC1=O)NC(=O)[C@H](CC1CCCCC1)NC(=O)OC(Cc1cccc(Cl)c1)c1ccccc1` (stereo partly drawn) [Compound C116, 2-(3-Chlorophenyl)-1-phenylethyl ((S)-1-(((S)-4-amino-3,4-dioxo-1-((S)-2-oxopyrrolidin-3-yl)butan-2-yl)amino)-3-cyclohexyl-1-oxopropan-2-yl)carbamate], for which the IC50 came to 4.84 µM.

On to `COc1cccc2[nH]c(C(=O)N[C@@H](CC3CCCCC3)C(=O)NC(CC3CC4(CCN(C(C)=O)CC4)NC3=O)C(=O)C(N)=O)cc12` (stereo partly drawn) [Compound C117, N-((2S)-1-((1-(8-Acetyl-2-oxo-1,8-diazaspiro[4.5]decan-3-yl)-4-amino-3,4-dioxobutan-2-yl)amino)-3-cyclohexyl-1-oxopropan-2-yl)-4-methoxy-1H-indole-2-carboxamide], for which the IC50 worked out at 0.0553 µM.

In the case of `CC(C)C(C)(C)C(NC(=O)OCc1ccccc1)C(=O)N[C@H](C=O)C[C@@H]1CCNC1=O` (stereo partly drawn) [Compound C118, Benzyl (3,3,4-trimethyl-1-oxo-1-(((S)-1-oxo-3-((S)-2-oxopyrrolidin-3-yl)propan-2-yl)amino)pentan-2-yl)carbamate], the IC50 was 0.868 µM.

For `NC(=O)C(=O)C(CC1CC2(CCCCC2)NC1=O)NC(=O)[C@H](CC1CCCCC1)NC(=O)c1cc2ccccc2[nH]1` (stereo partly drawn) [Compound C119, N-((2S)-1-((4-amino-3,4-dioxo-1-(2-oxo-1-azaspiro[4.5]decan-3-yl)butan-2-yl)amino)-3-cyclohexyl-1-oxopropan-2-yl)-1H-indole-2-carboxamide], the half-inhibitory concentration (IC50) was 0.796 µM.

Regarding `CC(C)(c1cccc(Cl)c1)C(OC(=O)N[C@@H](CC1CCCCC1)C(=O)N[C@@H](C[C@@H]1CCNC1=O)C(=O)C(N)=O)c1cccc(F)c1` (stereo partly drawn) [Compound C120, 2-(3-Chlorophenyl)-1-(3-fluorophenyl)-2-methylpropyl ((S)-1-(((S)-4-amino-3,4-dioxo-1-((S)-2-oxopyrrolidin-3-yl)butan-2-yl)amino)-3-cyclohexyl-1-oxopropan-2-yl) carbamate], the IC50 amounted to 1.06 µM.

(Values after US20230159453A1 (COCRYSTAL PHARMA, INC., priority 2020, published 2023).)
